Test results: ChEMBL document CHEMBL1201862, “PubChem BioAssay data set” (2004)
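Exposure lasted 48 hours, with cells grown in 96-well plates and compounds tested at five concentrations. GI50 marks 50% less growth.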 Activity calls are given as the source filed them. Cut-off read from the data, not from the text of the source: active = GI50 up to about 1.1 µM and inactive = higher.

Key:
Test in all cases: NCI tumour cell line growth inhibition, 48 h
RXF 393 = test system: RXF 393
DU-145 = test system: DU-145
OVCAR-3 = test system: OVCAR-3
OVCAR-8 = test system: OVCAR-8
A549 = test system: A549
Hs-578T = test system: Hs-578T
EKVX = test system: EKVX
TK-10 = test system: TK-10
NCI-H522 = test system: NCI-H522
SW-620 = test system: SW-620
SNB-75 = test system: SNB-75
RPMI-8226 = test system: RPMI-8226
HL-60 = test system: HL-60
UACC-62 = test system: UACC-62
Malme-3M = test system: Malme-3M
SN12C = test system: SN12C
MDA-MB-231 = test system: MDA-MB-231
HOP-92 = test system: HOP-92
HCT-116 = test system: HCT-116
SF-268 = test system: SF-268
OVCAR-4 = test system: OVCAR-4
HT-29 = test system: HT-29
NCI-H23 = test system: NCI-H23
SK-MEL-5 = test system: SK-MEL-5
HOP-62 = test system: HOP-62
IGROV-1 = test system: IGROV-1
M14 = test system: M14
SK-MEL-28 = test system: SK-MEL-28
MDA-MB-435 = test system: MDA-MB-435
MCF7 = test system: MCF7
COLO 205 = test system: COLO 205
K562 = test system: K562
KM12 = test system: KM12
HCT-15 = test system: HCT-15
BT-549 = test system: BT-549
PC-3 = test system: PC-3
MOLT-4 = test system: MOLT-4
CCRF-CEM = test system: CCRF-CEM
SR = test system: SR
NCI-H226 = test system: NCI-H226
OVCAR-5 = test system: OVCAR-5
U-251 = test system: U-251
SF-539 = test system: SF-539
786-0 = test system: 786-0
ACHN = test system: ACHN
MDA-N = test system: MDA-N
NCI-H460 = test system: NCI-H460
SNB-19 = test system: SNB-19
T47D = test system: T47D
UACC-257 = test system: UACC-257
NCI/ADR-RES = test system: NCI/ADR-RES
HCC 2998 = test system: HCC 2998
SF-295 = test system: SF-295
SK-OV-3 = test system: SK-OV-3
SK-MEL-2 = test system: SK-MEL-2
LOX IMVI = test system: LOX IMVI
CAKI-1 = test system: CAKI-1
UO-31 = test system: UO-31

`C[C@H]1CCCCC[C@@H]2CC(=O)CC2C(=O)CCC(=O)O1` (stereo not given in full) was tested, and the GI50 (RXF 393) was > 100 µM (inactive), the GI50 (DU-145) was > 100 µM (inactive) and the GI50 (OVCAR-3) was > 100 µM (inactive). The GI50 (OVCAR-8) was > 100 µM (inactive), the GI50 (A549) was > 100 µM (inactive) and the GI50 (Hs-578T) was > 100 µM (inactive). For the same compound, the GI50 (EKVX) was > 100 µM (inactive), the GI50 (TK-10) was > 100 µM (inactive) and the GI50 (NCI-H522) was > 100 µM (inactive). For the same compound, the GI50 (SW-620) was > 100 µM (inactive), the GI50 (SNB-75) was 9.02 µM (inactive) and the GI50 (RPMI-8226) was > 100 µM (inactive). The GI50 (HL-60) was > 100 µM (inactive), the GI50 (UACC-62) was 6.68 µM (inactive) and the GI50 (Malme-3M) was > 100 µM (inactive). The GI50 (SN12C) was > 100 µM (inactive), the GI50 (MDA-MB-231) was > 100 µM (inactive) and the GI50 (HOP-92) was > 100 µM (inactive). The GI50 (HCT-116) was > 100 µM (inactive), the GI50 (SF-268) was > 100 µM (inactive) and the GI50 (OVCAR-4) was > 100 µM (inactive). The GI50 (HT-29) was > 100 µM (inactive), the GI50 (NCI-H23) was > 100 µM (inactive) and the GI50 (SK-MEL-5) was > 100 µM (inactive). For the same compound, the GI50 (HOP-62) was > 100 µM (inactive), the GI50 (IGROV-1) was > 100 µM (inactive) and the GI50 (M14) was > 100 µM (inactive). The GI50 (SK-MEL-28) was > 100 µM (inactive), the GI50 (MDA-MB-435) was > 100 µM (inactive) and the GI50 (MCF7) was > 100 µM (inactive). The GI50 (COLO 205) was > 100 µM (inactive), the GI50 (K562) was > 100 µM (inactive) and the GI50 (KM12) was > 100 µM (inactive). The GI50 (HCT-15) was over 100 µM, the GI50 (BT-549) was > 100 µM (inactive) and the GI50 (PC-3) was > 100 µM (inactive). For the same compound, the GI50 (MOLT-4) was > 100 µM (inactive), the GI50 (CCRF-CEM) was > 100 µM (inactive) and the GI50 (SR) was > 100 µM (inactive). For the same compound, the GI50 (NCI-H226) was 16.7 µM (inactive), the GI50 (OVCAR-5) was > 100 µM (inactive) and the GI50 (U-251) was > 100 µM (inactive). For the same compound, the GI50 (SF-539) was > 100 µM (inactive), the GI50 (786-0) was > 100 µM (inactive) and the GI50 (ACHN) was > 100 µM (inactive). The GI50 (MDA-N) was > 100 µM (inactive), the GI50 (NCI-H460) was > 100 µM (inactive) and the GI50 (SNB-19) was > 100 µM (inactive). For the same compound, the GI50 (T47D) was > 100 µM (inactive), the GI50 (UACC-257) was > 100 µM (inactive) and the GI50 (NCI/ADR-RES) was 52.6 µM (inactive). For the same compound, the GI50 (HCC 2998) was > 100 µM (inactive) and the GI50 (SF-295) was > 100 µM (inactive).

In the case of `C=C1CC(COc2ccc3ccc(=O)oc3c2)(c2ccccc2)OC1=O` (stereo not given), the GI50 (SK-OV-3) is reported as 5.02 µM (inactive), the GI50 (DU-145) is reported as 2.77 µM (inactive) and the GI50 (OVCAR-3) is reported as 1.61 µM (inactive). The GI50 (OVCAR-8) was 2.21 µM (inactive), the GI50 (SK-MEL-2) was 1.53 µM (inactive) and the GI50 (A549) was 10.6 µM (inactive). For the same compound, the GI50 (Hs-578T) was 4.03 µM (inactive), the GI50 (EKVX) was 7.5 µM (inactive) and the GI50 (TK-10) was 1.54 µM (inactive). The GI50 (NCI-H522) was 0.501 µM (active), the GI50 (SW-620) was 0.316 µM (active) and the GI50 (SNB-75) was 5.92 µM (inactive). For the same compound, the GI50 (RPMI-8226) was 0.143 µM (active), the GI50 (HL-60) was 0.0803 µM (active) and the GI50 (UACC-62) was 1.45 µM (inactive). The GI50 (Malme-3M) was 2.33 µM (inactive), the GI50 (SN12C) was 2.73 µM (inactive) and the GI50 (MDA-MB-231) was 2.52 µM (inactive). For the same compound, the GI50 (HOP-92) was 0.685 µM (active), the GI50 (HCT-116) was 0.597 µM (active) and the GI50 (SF-268) was 3.27 µM (inactive). The GI50 (OVCAR-4) was 1.49 µM (inactive), the GI50 (HT-29) was 0.627 µM (active) and the GI50 (NCI-H23) was 0.912 µM (active). For the same compound, the GI50 (LOX IMVI) was 0.942 µM (active), the GI50 (SK-MEL-5) was 1.47 µM (inactive) and the GI50 (HOP-62) was 11.6 µM (inactive). For the same compound, the GI50 (IGROV-1) was 1.64 µM (inactive), the GI50 (M14) was 1.18 µM (inactive) and the GI50 (SK-MEL-28) was 2.3 µM (inactive). For the same compound, the GI50 (MDA-MB-435) was 2.61 µM (inactive), the GI50 (MCF7) was 1.26 µM (inactive) and the GI50 (COLO 205) was 0.625 µM (active). The GI50 (K562) was 0.266 µM (active), the GI50 (KM12) was 3.27 µM (inactive) and the GI50 (HCT-15) was 1.87 µM. The GI50 (BT-549) was 1.54 µM (inactive), the GI50 (PC-3) was 2.69 µM (inactive) and the GI50 (MOLT-4) was 1.25 µM (inactive). The GI50 (CCRF-CEM) was 0.233 µM (active), the GI50 (CAKI-1) was 0.885 µM (active) and the GI50 (SR) was 0.867 µM (active). For the same compound, the GI50 (NCI-H226) was 5.3 µM (inactive), the GI50 (OVCAR-5) was 5.87 µM (inactive) and the GI50 (U-251) was 8.93 µM (inactive). The GI50 (SF-539) was 3.46 µM (inactive), the GI50 (786-0) was 1.46 µM (inactive) and the GI50 (ACHN) was 2.01 µM (inactive). For the same compound, the GI50 (MDA-N) was 1.11 µM (active), the GI50 (NCI-H460) was 10.5 µM (inactive) and the GI50 (UO-31) was 5.19 µM (inactive). The GI50 (SNB-19) was 15 µM (inactive), the GI50 (T47D) was 1.87 µM (inactive) and the GI50 (UACC-257) was 1.71 µM (inactive). For the same compound, the GI50 (NCI/ADR-RES) was 2.48 µM (inactive), the GI50 (HCC 2998) was 1.27 µM (inactive) and the GI50 (SF-295) was 6.78 µM (inactive).
